Data published in patent US6423741B1, “Anti-microbial composition and method for producing the same” (priority 1998, dated 2002).
In brackets after ≈: the same amount, converted by molar mass. Where two headings read alike, the source gives them in different places.

How the values were obtained:
E. coli Wildtype = assay: Resistance study, combination treatment vs mixed mutant cultures (optical density at 620 nm); type: cell-based
Source text: (§1) Continuing with the experimentation the applicants analyzed the growth of the mutant strains individually and upon co-cultivation compared to the wild type in presence of the compounds individually and in combination.

M1 = assay: as above; type: cell-based, E. coli
Source text: as §1

M2 = assay: as above; type: cell-based, E. coli
Source text: as §1

M1 + M2 (co-cultivation) = assay: as above; type: cell-based, E. coli
Source text: as §1

[1] = system: Escherchia coli mutant A1; assay: Minimum inhibitory concentration of nalidixic acid; type: cell-based
Method: (§2) To determine the correlation between nalidixic acid and α-arteether sensitivity, the applicants selected Escherchia coli cultures which were resistant to nalidixic acid at varying degrees (concentrations). Based on the minimal inhibitory concentration of nalidixic acid, Escherchia coli mutants were grouped as highly sensitive (MIC less than or equal to 10 μg/ml), resistant (MIC 10 to 200 μg/ml), […] (MIC more than or equal to 200 μg/ml). These strains were then tested for their sensitivity against α-arteether by estimating their growth (Absorbance at 620 nano meter wavelength of light) in presence of increasing concentrations of α-arteether. The absorbance data was converted to percent growth by considering the absorbance in control as 100%. The growth was then quantified as follows: 1.) greater than 80% growth : the mutant is highly resistant to α-arteether; 2.) 20 to 80% growth : the mutant is moderately resistant to α-arteether; 3.) less than 20% growth : the mutant is sensitive to α-arteether. […] In other words Escherchia coli mutants most resistant to nalidixic acid are most efficiently killed by α-arteether (Table 4) and vice versa.

[2] = system: Escherchia coli mutant A3; assay: Minimum inhibitory concentration of nalidixic acid; type: cell-based
Method: as §2

[3] = system: Escherchia coli mutant A4; assay: Minimum inhibitory concentration of nalidixic acid; type: cell-based
Method: as §2

[4] = system: Escherchia coli mutant A2; assay: Minimum inhibitory concentration of nalidixic acid; type: cell-based
Method: as §2

E. coli (Wildtype) = assay: Disc sensitivity of E. coli strains; type: cell-based; settings: wild type strains; no dose stated
Source text: (§3) Since pathogens always try to counter the drug by genetically modifying itself through mutation(s) in the region of the drug target gene, it is necessary to kill those mutant(s) resistant cells for effective drug management. With this rationale, the applicants evaluated a selected drug resistant mutant strain (Ml) for nalidixic acid (wild type strains being sensitive to nalidixic acid). This mutant strain developed from wild type was defective in Gyr A subunit confirmed by mobilizing a plasmid bearing a wild type gyr A gene. […] Similarly a second mutant (M2) developed from the gyr A^− mutant strain (Nal^r) became sensitive to nalidixic acid which being resistant to α arteether (Table 3). It was noted that invariably among all the tested strains, those resistant to nalidixic acid were sensitive to α arteether and the strains sensitive to nalidixic acid were resistant to cc arteether. […] This is so, because the resistance to nalidixic acid is developed by gyr A mutation and the mutants will be killed by α arteether while, the α-arteether resistant strains will automatically become nalidixic acid sensitive and thus will be killed by nalidixic acid and this way all the spontaneous resistant bacteria could be contained.

M2 (Mutant) = assay: Disc sensitivity of E. coli strains; type: cell-based; settings: second mutant (M2) developed from gyr A− mutant; no dose stated
Source text: as §3

[5] = system: M1 (Mutant), gyr A− mutant; assay: Disc sensitivity of E. coli strains; type: cell-based; settings: gyr A− mutant (M1) developed from wild type; no dose stated
Source text: as §3

[6] = system: Escherchia coli (Wild type); assay: Frequency of spontaneous resistance on poison agar with nalidixic acid; type: cell-based; settings: 50 μg/ml nalidixic acid poison agar
Method: (§4) In an experiment, the applicants first determined the frequency of spontaneous mutations in the bacteria Escherchia coil (Kumar, S. 1976. Journal of Bacteriology, 125: 545-555.) and Mycobacterium smegmatis (Snapper, S. B., Melton, R. E., Mustafa, S., Kieser, T. and Jacobs, W. R. 1990. Molecular Microbiology. 4:1911-1919.) leading to subsequent resistance development through selection in the presence of these drugs. Known titers of broth cultures of the bacteria were diluted and plated on poison agar medium containing 50 μg/ml nalidixic acid, and the resistant colonies thus developed were counted to estimate the frequency of drug resistance (Nal) development (Table 1).

[7] = system: Mycobacterium smegmatis (Wild type); assay: as above; type: cell-based; settings: 50 μg/ml nalidixic acid poison agar
Method: as §4

Activity at different pH = settings: pH (neutral)
Method: Further, it is worth noting here that the said compounds of the invention are already in use for human consumption and the safety data of applications of the compounds are already known. As a known example of prior art (Asthana, O. P, Srivastava, J. S and Valecha, N., 1997. Current status of the artemisinin derivatives in the treatment of malaria with focus on arteether. Journal of Parasitic Diseases. 21: 1-12.), α/β arteether mixture is given at 150 mg doses (one dose per day, for 3 days) as intramuscular injection for treatment of drug resistant and cerebral malaria cases. The injections in the mentioned preparation are prepared in neutralized vegetable oil. Both the compounds of invention that is, α arteether and the quinolones have shown the best activities at pH 7.0 (neutral) in our experiments. Thus, the composition of this invention can be used to treat bacterial infections, particularly the cases where the emergence of drug resistance is known to have high incidence level. The said composition/composition can be employed for prevention of resistance development through random mutations occurring in bacteria against antibiotics. Various classes of quinolone drugs thus can be administered along with α-arteether in form of injection by suspending the compound in the neutralised vegetable oil. […]

[8] = system: wild type (Nal^s) strains of E.coli; settings: earlier invention; cited from earlier work
[9] = system: Escherchia coli mutant A1; assay: Growth (absorbance at 620 nm) at increasing concentrations of α-arteether; type: cell-based
Method: as §2

[10] = system: Escherchia coli mutant A3; assay: as above; type: cell-based
Method: as §2

[11] = system: Escherchia coli mutant A4; assay: as above; type: cell-based
Method: as §2

[12] = system: Escherchia coli mutant A2; assay: as above; type: cell-based
Method: as §2

Escherchia coli (Nal′) = assay: Frequency of spontaneous resistance on plates with α-arteether; type: cell-based; settings: 1000 μg/ml α-arteether
Method: (§5) Further to determine the frequency of spontaneous resistant mutants in Escherchia coil and Mycobacterium smegmatis for α-arteether, the applicants used the nalidixic acid resistant mutants from the earlier example as the wild type strains since those were sensitive to α-arteether to isolate α-arteether resistant colonies. Known titers of broth cultures of the mutant (Nal) bacteria were diluted and plated in petriplates containing 1000 μg/ml α-arteether, and the resistant colonies thus developed were counted to determine the frequencies (Table 2).

[13] = system: Mycobacterium smegmatis (Nal′); assay: as above; type: cell-based; settings: 1000 μg/ml α-arteether
Method: as §5

[14] = system: gyr mutant (Nal^r) strains of E.coli; settings: earlier invention; cited from earlier work
[15] = read-out: Minimum inhibitory concentration of nalidixic acid
[16] = read-out: Group by minimal inhibitory concentration of nalidixic acid

With `CCn1cc(C(=O)O)c(=O)c2ccc(C)nc21` [nalidixic acid] the “Optical density at 620 nanometer” value (E. coli Wildtype; nalidixic acid 50 μg/ml) was 0.000, the “Optical density at 620 nanometer” value (E. coli Wildtype; nalidixic acid 300 μg/ml) was 0.000 and the “Optical density at 620 nanometer” value (M1; nalidixic acid 50 μg/ml) was 0.950. For the same compound, the “Optical density at 620 nanometer” value (M1; nalidixic acid 300 μg/ml) was 0.960, the “Optical density at 620 nanometer” value (M2; nalidixic acid 50 μg/ml) was 0.000 and the “Optical density at 620 nanometer” value (M2; nalidixic acid 300 μg/ml) was 0.000. For the same compound, the “Optical density at 620 nanometer” value (M1 + M2 (co-cultivation); nalidixic acid 50 μg/ml) was 0.910, the “Optical density at 620 nanometer” value (M1 + M2 (co-cultivation); nalidixic acid 300 μg/ml) was 0.920 and the “Group by minimal inhibitory concentration of nalidixic acid” value ([1]; mutant A1) was “sensitive)”. The MIC [1, 15] was < 4 µg/mL, the MIC [2, 16] was 10 to 200 µg/mL (≈ 43.1 to 861 µM) and the MIC [2, 15] was 150 µg/mL (≈ 646 µM). The MIC [3, 16] was > 200 µg/mL, the MIC [3, 15] was > 300 µg/mL and the MIC [4, 16] was 10 to 200 µg/mL (≈ 43.1 to 861 µM). The MIC [4, 15] was 37.5 µg/mL (≈ 161 µM), the “Sensitivity of the strain” value (E. coli (Wildtype)) was “sensitive” and the “Sensitivity of the strain” value (M2 (Mutant)) was “sensitive”. The “Sensitivity of the strain” value [5] was “resistant”, the “Frequency of spontaneous resistance developed against Nalidixic acid” value [6] was 7.1 × 10^−9 and the “Frequency of spontaneous resistance developed against Nalidixic acid” value [7] was 1.0 × 10^−10.

For `CCO[C@@H]1O[C@@H]2O[C@]3(C)CC[C@H]4[C@H](C)CC[C@@H]([C@H]1C)[C@@]24OO3` [α-arteether], the “Optical density at 620 nanometer” value (E. coli Wildtype; α arteether 400 μg/ml) was 0.890, the “Optical density at 620 nanometer” value (E. coli Wildtype; α arteether 800 μg/ml) was 0.90 and the “pH of best activities” value (Activity at different pH) was 7.0. The “Optical density at 620 nanometer” value (M1; α arteether 400 μg/ml) was 0.000, the “Optical density at 620 nanometer” value (M1; α arteether 800 μg/ml) was 0.000 and the “Optical density at 620 nanometer” value (M2; α arteether 400 μg/ml) was 0.900. For the same compound, the “Optical density at 620 nanometer” value (M2; α arteether 800 μg/ml) was 0.91, the “Optical density at 620 nanometer” value (M1 + M2 (co-cultivation); α arteether 400 μg/ml) was 0.920 and the “Optical density at 620 nanometer” value (M1 + M2 (co-cultivation); α arteether 800 μg/ml) was 0.930. For the same compound, the “Effectiveness against the strains” value [8] was “ineffective”, the “Sensitivity of the strain” value (M2 (Mutant)) was “resistant” and the “Sensitivity of the strain” value [5] was “sensitive”. For the same compound, the “Growth (absorbance at 620 nm)” value ([9]; 400 μg/ml α-arteether) was 0.858, the “Percent growth (absorbance in control as 100%)” value ([9]; 400 μg/ml α-arteether) was “(93%)” and the “Growth (absorbance at 620 nm)” value ([9]; 800 μg/ml α-arteether) was 0.854. The “Percent growth (absorbance in control as 100%)” value ([9]; 800 μg/ml α-arteether) was “(93%)”, the “Growth (absorbance at 620 nm)” value ([9]; 1200 μg/ml α-arteether) was 0.817 and the “Percent growth (absorbance in control as 100%)” value ([9]; 1200 μg/ml α-arteether) was “(89%)”. For the same compound, the “Growth (absorbance at 620 nm)” value ([10]; 400 μg/ml α-arteether) was 0.421, the “Percent growth (absorbance in control as 100%)” value ([10]; 400 μg/ml α-arteether) was “(50%)” and the “Growth (absorbance at 620 nm)” value ([10]; 800 μg/ml α-arteether) was 0.405. The “Percent growth (absorbance in control as 100%)” value ([10]; 800 μg/ml α-arteether) was “(47%)”, the “Growth (absorbance at 620 nm)” value ([10]; 1200 μg/ml α-arteether) was 0.390 and the “Percent growth (absorbance in control as 100%)” value ([10]; 1200 μg/ml α-arteether) was 46%. The “Growth (absorbance at 620 nm)” value ([11]; 400 μg/ml α-arteether) was 0.017, the “Percent growth (absorbance in control as 100%)” value ([11]; 400 μg/ml α-arteether) was “(2%)” and the “Growth (absorbance at 620 nm)” value ([11]; 800 μg/ml α-arteether) was 0.007. The “Percent growth (absorbance in control as 100%)” value ([11]; 800 μg/ml α-arteether) was “(0.7%)”, the “Growth (absorbance at 620 nm)” value ([11]; 1200 μg/ml α-arteether) was 0.000 and the “Percent growth (absorbance in control as 100%)” value ([11]; 1200 μg/ml α-arteether) was “(0%)”. The “Growth (absorbance at 620 nm)” value ([12]; 400 μg/ml α-arteether) was 0.607, the “Percent growth (absorbance in control as 100%)” value ([12]; 400 μg/ml α-arteether) was “(66%)” and the “Growth (absorbance at 620 nm)” value ([12]; 800 μg/ml α-arteether) was 0.539. For the same compound, the “Percent growth (absorbance in control as 100%)” value ([12]; 800 μg/ml α-arteether) was “(58%)”, the “Growth (absorbance at 620 nm)” value ([12]; 1200 μg/ml α-arteether) was 0.458 and the “Percent growth (absorbance in control as 100%)” value ([12]; 1200 μg/ml α-arteether) was “(50%)”. The “Frequency of spontaneous resistance developed against α-arteether” value (Escherchia coli (Nal′)) was 1.8 × 10^−9, the “Frequency of spontaneous resistance developed against α-arteether” value [13] was 1.1 × 10^−10 and the “Effectiveness against the strains” value [14] was “effective”.
